For four molecules, pest or weed control results are on record in patent US10662138B2, “Herbicidal propynyl-phenyl compounds” (Syngenta Participations AG, priority 2014, dated 2020).

Holding throughout (type): in vivo
For test [1], the system named is Zea mays (corn, maize, e.g. volunteer corn). The experiment in a line: Glasshouse assay for herbicidal activity, post-emergence, ZEAMX. The note with it: Zea mays, 312 h, 250 g/ha, visual 13 days after application, 100%=total damage, read-out: Percentage phytotoxicity ZEAMX. The method, then:
(§1) Seeds of a variety of test plant species were sown in standard soil ** in pots. After cultivation for one day (pre-emergence) or after 8 days cultivation (post-emergence) under controlled conditions in a glasshouse (at 24/16° C., day/night; 14 hours light; 65% humidity), the plants were sprayed with an aqueous spray solution derived from the formulation of the technical active ingredient (the test herbicide) in acetone/water (50:50) solution containing 0.5% Tween 20 (polyoxyethylene sorbitan monolaurate, CAS Reg. No. 9005-64-5). The test plants were then grown on under controlled conditions in a glasshouse (at 24/16° C., day/night; 14 hours light; 65% humidity) and watered twice daily. 13 Days after application of the test herbicide, for pre- and post-emergence, the test was evaluated visually for percentage phytotoxicity to each plant (where 100%=total damage to plant; 0%=no damage to plant). Generally, each test herbicide is only tested on 1 plant per plant species for each application rate tested and for each application timing. The “standard soil” in Biological Example 1 is usually a “sand” or “sandy loam” type of soil. Biological Example 1—Post-Emergence Application—Herbicidal Activity Results (Percentage Phytotoxicity) Dicotyledonous weeds: ABUTH=Abutilon theophrasti; AMARE=Amaranthus retroflexus. Grassy monocotyledonous weeds: SETFA=Setaria faberi; ALOMY=Alopecurus myosuroides; ECHCG=Echinochloa crus-galli; ZEAMX=Zea mays (corn, maize, e.g. volunteer corn).

The next test concerns Amaranthus retroflexus. The experiment in a line: Glasshouse assay for herbicidal activity, post-emergence, AMARE. The note with it: Amaranthus retroflexus, 312 h, 250 g/ha, visual 13 days after application, 100%=total damage, read-out: Percentage phytotoxicity AMARE. How it is done:
as §1

Another test relates to Alopecurus myosuroides. The experiment in a line: Glasshouse assay for herbicidal activity, post-emergence, ALOMY. The following applies: Alopecurus myosuroides, 312 h, 250 g/ha, visual 13 days after application, 100%=total damage, read-out: Percentage phytotoxicity ALOMY. How it is done: as §1
Another test relates to Abutilon theophrasti. The experiment in a line: Glasshouse assay for herbicidal activity, post-emergence, ABUTH. The note with it: Abutilon theophrasti, 312 h, 250 g/ha, visual 13 days after application, 100%=total damage, read-out: Percentage phytotoxicity ABUTH. The method, then: as §1
For another test, the system named is Echinochloa crus-galli. As to the kind of experiment: Glasshouse assay for herbicidal activity, post-emergence, ECHCG. The following applies: Echinochloa crus-galli, 312 h, 250 g/ha, visual 13 days after application, 100%=total damage, read-out: Percentage phytotoxicity ECHCG. How it is done: as §1
In a further test the test system is Setaria faberi. As to the kind of experiment: Glasshouse assay for herbicidal activity, post-emergence, SETFA. The following applies: Setaria faberi, 312 h, 250 g/ha, visual 13 days after application, 100%=total damage, read-out: Percentage phytotoxicity SETFA. The method, then:
as §1

For the molecule `CC#Cc1ccc(C2=C(OC(=O)SC(C)C)C3CCC(C3)C2=O)c(OC)c1` (stereo not drawn) [Compound P15], the pest or weed control at 250 g/ha in test [1] was found to be 100%; with Amaranthus retroflexus, 10%; in the test on Alopecurus myosuroides it was 90%; with Abutilon theophrasti it was 70%; with Echinochloa crus-galli, 100%; in the test with Setaria faberi, 100%.

For the molecule `CC#Cc1ccc(C2=C(OS(C)(=O)=O)C3CCC(C3)C2=O)c(OC)c1` (stereo not drawn) [Compound P16], the pest or weed control at 250 g/ha in test [1] turned out to be 100%; in the test with Amaranthus retroflexus, 40%; in the test with Alopecurus myosuroides, 80%; in the test on Abutilon theophrasti it was 40%; in the test with Echinochloa crus-galli it was 90%; in the test on Setaria faberi, 70%.

Consider `CC#Cc1ccc(C2=C(OS(=O)(=O)CC)C3CCC(C3)C2=O)c(OC)c1` (stereo not drawn) [Compound P17], for which the pest or weed control at 250 g/ha turned out to be 100% in test [1]; 0% in the test with Amaranthus retroflexus; 90% in the test on Alopecurus myosuroides; 70% in the test on Abutilon theophrasti; 90% with Echinochloa crus-galli; 80% with Setaria faberi.

Regarding `C=CC(=O)OC1=C(c2ccc(C#CC)cc2OC)C(=O)C2CCC1C2` (stereo not drawn) [Compound P18], the pest or weed control at 250 g/ha in test [1] stood at 100%; in the test with Amaranthus retroflexus, 30%; in the test on Alopecurus myosuroides, 90%; in the test with Abutilon theophrasti it was 70%; in the test with Echinochloa crus-galli it was 100%; with Setaria faberi, 90%.
